{"source": "paper PMC314469", "about": "“Protein Interaction Networks by Proteome Peptide Scanning” (PLoS Biology, 2004)", "data": [{"system": "Myo5 SH3 domain", "assay": "SPOT analysis of cellulose-bound peptides (WISE), Myo5 SH3 domain (Dataset S4)", "assay_type": "binding, Saccharomyces cerevisiae", "conditions": "SPOT analysis of cellulose-bound 14-mer yeast proteome peptides, Myo5 SH3 domain; normalized value; mean where the peptide was synthesized more than once", "units": {"The normalized value in BLU units": "BLU"}, "values": [{"sequence": "TEDGFVIPALPAAV", "The normalized value in BLU units": 290.4}, {"sequence": "PEHLFNNPQNPMDF", "The normalized value in BLU units": 157.1}, {"sequence": "TELNLSCPNVPGKP", "The normalized value in BLU units": 227.7}, {"sequence": "TASQLQNPPPPPST", "The normalized value in BLU units": 168.2}, {"sequence": "TELLKTLPFYPTPS", "The normalized value in BLU units": 77.3}, {"sequence": "TWKMHLWPVSPPQL", "The normalized value in BLU units": 224.0}, {"sequence": "KLVKFKLPFLPISD", "The normalized value in BLU units": 974.1}, {"sequence": "TPINFVFPNLPLEH", "The normalized value in BLU units": 81.8}, {"sequence": "HPIHLQPPVPPVYK", "The normalized value in BLU units": 317.7}, {"sequence": "NLHGYGHPNPPNEK", "The normalized value in BLU units": 216.6}, {"sequence": "TPMDFPEPVGPLAI", "The normalized value in BLU units": 175.4}, {"sequence": "IEEGHLDPEAPDKL", "The normalized value in BLU units": 84.8}, {"sequence": "SWAVLPVPGGPVMY", "The normalized value in BLU units": 69.2}, {"sequence": "AGHIKTHPNSPTPG", "The normalized value in BLU units": 60.3}, {"sequence": "EAFKLPKPWSPNSH", "The normalized value in BLU units": 141.0}, {"sequence": "APKKWKAPKGPKPT", "The normalized value in BLU units": 1010.5}, {"sequence": "LWRPRIVPILPYIT", "The normalized value in BLU units": 1051.3}, {"sequence": "KYIIKTEPESPEED", "The normalized value in BLU units": 245.5}, {"sequence": "ELAEFTDPSCPVSE", "The normalized value in BLU units": 188.9}, {"sequence": "KIVRRDYPSTPVIV", "The normalized value in BLU units": 366.1}, {"sequence": "MASFLPVPEKPNLI", "The normalized value in BLU units": 161.0}, {"sequence": "MLKALFTPLIPVSF", "The normalized value in BLU units": 257.0}, {"sequence": "DLSVHTSPHGPIGS", "The normalized value in BLU units": 186.1}, {"sequence": "APQPHLLPWLPPTD", "The normalized value in BLU units": 117.4}, {"sequence": "TLDEKECPSVPPTV", "The normalized value in BLU units": 211.5}, {"sequence": "KNIIKYVPWGPPLE", "The normalized value in BLU units": 164.4}, {"sequence": "APPALSAPSVPPVP", "The normalized value in BLU units": 6575.3}, {"sequence": "SKYAKLDPSTPVSL", "The normalized value in BLU units": 457.3}, {"sequence": "FFFFHLSPSIPFWF", "The normalized value in BLU units": 6490.2}, {"sequence": "YPEKFQKPYNPLAM", "The normalized value in BLU units": 157.4}, {"sequence": "VLLPLRLPEIPPKG", "The normalized value in BLU units": 1072.4}]}, {"system": "Myo5 SH3 domain", "assay": "SPOT analysis of cellulose-bound peptides (WISE), Myo5 SH3 domain (Dataset S4)", "assay_type": "binding, Saccharomyces cerevisiae", "conditions": "SPOT analysis of cellulose-bound peptides probed with Myo5 SH3 domain; normalized value", "units": {"The normalized value in BLU units (SPOT analysis, Myo5 SH3)": "BLU"}, "values": [{"sequence": "KPSVMKLPPSPKQP", "The normalized value in BLU units (SPOT analysis, Myo5 SH3)": 380.5}, {"sequence": "HFLAYTNPRAPGKL", "The normalized value in BLU units (SPOT analysis, Myo5 SH3)": 111.7}, {"sequence": "GLDALNIPHKPKQL", "The normalized value in BLU units (SPOT analysis, Myo5 SH3)": 167.1}, {"sequence": "FLPVFNLPSNPALF", "The normalized value in BLU units (SPOT analysis, Myo5 SH3)": 154.3}, {"sequence": "FASQLRKPRAPMRN", "The normalized value in BLU units (SPOT analysis, Myo5 SH3)": 459.9}, {"sequence": "EARPYSEPSEPEDS", "The normalized value in BLU units (SPOT analysis, Myo5 SH3)": 208.3}, {"sequence": "PLNQLPNPAMPLLH", "The normalized value in BLU units (SPOT analysis, Myo5 SH3)": 104.2}, {"sequence": "EEMGMEEPQAPEAF", "The normalized value in BLU units (SPOT analysis, Myo5 SH3)": 127.9}, {"sequence": "PFYTMPDPANPKYS", "The normalized value in BLU units (SPOT analysis, Myo5 SH3)": 145.1}, {"sequence": "HFYEYVYPSLPFIE", "The normalized value in BLU units (SPOT analysis, Myo5 SH3)": 152.0}, {"sequence": "DPNAYMQPQVPVQM", "The normalized value in BLU units (SPOT analysis, Myo5 SH3)": 160.5}, {"sequence": "DELLLMSPELPADL", "The normalized value in BLU units (SPOT analysis, Myo5 SH3)": 16.0}, {"sequence": "SPKKHVSPSRPPSV", "The normalized value in BLU units (SPOT analysis, Myo5 SH3)": 1427.8}, {"sequence": "LAKDLIVPRRPEWN", "The normalized value in BLU units (SPOT analysis, Myo5 SH3)": 117125.4}, {"sequence": "ALKEMTHPIKPSAQ", "The normalized value in BLU units (SPOT analysis, Myo5 SH3)": 261.0}, {"sequence": "NEDTFLPPPPPPPS", "The normalized value in BLU units (SPOT analysis, Myo5 SH3)": 20439.9}, {"sequence": "EAIKLGVPKGPLFA", "The normalized value in BLU units (SPOT analysis, Myo5 SH3)": 130.4}, {"sequence": "QPQAYHLPGNPYST", "The normalized value in BLU units (SPOT analysis, Myo5 SH3)": 187.4}, {"sequence": "SPKPFSKPQEPVKA", "The normalized value in BLU units (SPOT analysis, Myo5 SH3)": 359.1}, {"sequence": "SPKKLASPRTPNAN", "The normalized value in BLU units (SPOT analysis, Myo5 SH3)": 276.2}, {"sequence": "AELLLGQPMFPGES", "The normalized value in BLU units (SPOT analysis, Myo5 SH3)": 172.2}, {"sequence": "TAAELQAPPPPPSS", "The normalized value in BLU units (SPOT analysis, Myo5 SH3)": 315.2}, {"sequence": "SATGWLKPAVPIQW", "The normalized value in BLU units (SPOT analysis, Myo5 SH3)": 94.6}]}, {"system": "Myo5 SH3 domain", "assay": "SPOT analysis of cellulose-bound peptides (WISE), Myo5 SH3 domain (Dataset S4)", "assay_type": "binding, Saccharomyces cerevisiae", "conditions": "SPOT analysis of membrane-bound peptides, Myo5 SH3 domain; normalized value (see methods)", "units": {"The normalized value in BLU units": "BLU"}, "values": [{"sequence": "EKELKEGPSSPASI", "The normalized value in BLU units": 208.1}, {"sequence": "PEWRRPHPNIPDAK", "The normalized value in BLU units": 182.7}, {"sequence": "AGQERFAPLAPMYY", "The normalized value in BLU units": 100.8}, {"sequence": "AKLRKFHPPEPYKG", "The normalized value in BLU units": 119.3}, {"sequence": "ASKHKMFPFNPAKI", "The normalized value in BLU units": 953.1}, {"sequence": "DIPRRYIPITPADL", "The normalized value in BLU units": 33.0}, {"sequence": "RRHNRQHPPYPHSG", "The normalized value in BLU units": 1287.6}, {"sequence": "EYFPREYPKDPVSE", "The normalized value in BLU units": 272.2}, {"sequence": "KYCFKLVPPQPGSK", "The normalized value in BLU units": 218.8}, {"sequence": "MLNSKHYPYIPVAN", "The normalized value in BLU units": 170.8}, {"sequence": "IAKLKRKPVVPRLK", "The normalized value in BLU units": 888.5}, {"sequence": "GFQDRSLPHFPKNS", "The normalized value in BLU units": 178.5}, {"sequence": "TQPVRKNPEAPARR", "The normalized value in BLU units": 232.1}, {"sequence": "SKDKKTKPTPPPKP", "The normalized value in BLU units": 179.5}, {"sequence": "RKSDKNAPSVPQVD", "The normalized value in BLU units": 394.6}, {"sequence": "GIKVKRIPYSPKSI", "The normalized value in BLU units": 390.6}, {"sequence": "VPIDKKSPFYPGLD", "The normalized value in BLU units": 150.4}, {"sequence": "CAKSKSRPNTPGSD", "The normalized value in BLU units": 153.0}, {"sequence": "MRRCKDAPIEPPKY", "The normalized value in BLU units": 155.1}, {"sequence": "APPPKEEPAAPTST", "The normalized value in BLU units": 116.7}, {"sequence": "NGKDKSRPPRPPPK", "The normalized value in BLU units": 2621.2}, {"sequence": "QELPRAIPVMPFVD", "The normalized value in BLU units": 118.1}, {"sequence": "NNLKKRPPTAPQRK", "The normalized value in BLU units": 418.9}, {"sequence": "QSKTKPLPVEPASP", "The normalized value in BLU units": 122.1}, {"sequence": "KKIAKGDPKIPMQN", "The normalized value in BLU units": 720.5}, {"sequence": "KIVERGPPYPPDLR", "The normalized value in BLU units": 137.7}, {"sequence": "DLKKKYAPDPPITH", "The normalized value in BLU units": 185.5}, {"sequence": "KKKKKNGPGAPQGY", "The normalized value in BLU units": 328.8}]}, {"system": "Myo5 SH3 domain", "assay": "SPOT analysis of cellulose-bound peptides (WISE), Myo5 SH3 domain (Dataset S4)", "assay_type": "binding, Saccharomyces cerevisiae", "conditions": "SPOT analysis of membrane-synthesized peptides probed with Myo5 SH3 domain; normalized value", "units": {"The normalized value in BLU units (SPOT analysis, Myo5 SH3)": "BLU"}, "values": [{"sequence": "WSQMRMNPTNPDWI", "The normalized value in BLU units (SPOT analysis, Myo5 SH3)": 81.2}, {"sequence": "MAFIKILPNNPWPF", "The normalized value in BLU units (SPOT analysis, Myo5 SH3)": 59.9}, {"sequence": "ISADKGFPLIPSGY", "The normalized value in BLU units (SPOT analysis, Myo5 SH3)": 113.3}, {"sequence": "APVVKSEPSLPRMR", "The normalized value in BLU units (SPOT analysis, Myo5 SH3)": 241.2}, {"sequence": "SMDSKRKPSPPSQR", "The normalized value in BLU units (SPOT analysis, Myo5 SH3)": 509.7}, {"sequence": "QTVIKTHPRIPKSE", "The normalized value in BLU units (SPOT analysis, Myo5 SH3)": 186.2}, {"sequence": "RLLSKYRPSCPIIL", "The normalized value in BLU units (SPOT analysis, Myo5 SH3)": 336.6}, {"sequence": "TLKKKKTPKKPIAA", "The normalized value in BLU units (SPOT analysis, Myo5 SH3)": 535.4}, {"sequence": "LSPAKARPSFPHND", "The normalized value in BLU units (SPOT analysis, Myo5 SH3)": 212.8}, {"sequence": "GIMIKAKPSSPYTY", "The normalized value in BLU units (SPOT analysis, Myo5 SH3)": 235.9}, {"sequence": "YSYLRLLPWWPSLA", "The normalized value in BLU units (SPOT analysis, Myo5 SH3)": 187.6}, {"sequence": "GTTNRGPPPLPPRA", "The normalized value in BLU units (SPOT analysis, Myo5 SH3)": 39858.8}, {"sequence": "SKIPKSIPIIPYVL", "The normalized value in BLU units (SPOT analysis, Myo5 SH3)": 243.1}, {"sequence": "KNILKVCPVLPSIL", "The normalized value in BLU units (SPOT analysis, Myo5 SH3)": 117.9}, {"sequence": "ETKKKWQPLPPEPL", "The normalized value in BLU units (SPOT analysis, Myo5 SH3)": 255.8}, {"sequence": "GKMVKWGPLRPFLS", "The normalized value in BLU units (SPOT analysis, Myo5 SH3)": 644.7}, {"sequence": "AVLIRADPLNPKVV", "The normalized value in BLU units (SPOT analysis, Myo5 SH3)": 102.0}, {"sequence": "LNRQKNYPDAPAIF", "The normalized value in BLU units (SPOT analysis, Myo5 SH3)": 86.4}, {"sequence": "TSGYKYFPQFPQLK", "The normalized value in BLU units (SPOT analysis, Myo5 SH3)": 234.6}, {"sequence": "LPFPRKNPKLPENT", "The normalized value in BLU units (SPOT analysis, Myo5 SH3)": 147.2}, {"sequence": "LNPNRRAPRRPLST", "The normalized value in BLU units (SPOT analysis, Myo5 SH3)": 8004.0}, {"sequence": "ASFRKTKPPPPLDF", "The normalized value in BLU units (SPOT analysis, Myo5 SH3)": 169.0}, {"sequence": "VVNEKEVPAEPETQ", "The normalized value in BLU units (SPOT analysis, Myo5 SH3)": 100.0}, {"sequence": "ATGKRKLPGWPSAD", "The normalized value in BLU units (SPOT analysis, Myo5 SH3)": 136.1}]}]}
